Several values for one entry are separate records, joined by “and”; a condition that tells them apart may be missing. Equal values may be shown once.
Assays:
[1] = Salmon calcitonin blood concentration, nasal powder with calcium carbonate (Test Example 5); assay type: in vivo, healthy male adults (human)
Protocol: A nasally administrable composition in powdery form was prepared by formulating salmon calcitonin as a physiologically active peptide at the rate of 200 MRC (IU) per 25 mg with calcium carbonate as a carrier having a mean particle size ranging from 40 to 45 μm.
(§1) The resulting composition was nasally administered once at a dose of 25 mg to three healthy male adults and the blood (2.5 ml) was collected from each of the tested adults prior to administration and then at 5, 10, 15, 20, 30, 45, 60, 90, 120 and 180 minutes after administration. The concentration of the salmon calcitonin in each of the collected blood samples was assayed with a standard RIA assay kit.

[2] = relative, among calcitonins; cited from earlier work
[3] = Salmon calcitonin blood concentration, nasal powder with hydroxyapatite (Test Example 2); assay type: in vivo, healthy male adults (human); details: for Concentration of salmon calcitonin in the blood: nasal 200 MRC (IU)/25 mg, individual cases No. 1-3 in order
Protocol: (§2) A nasally administrable composition in powdery form was prepared by formulating salmon calcitonin as a physiologically active peptide at the rate of 200 MRC (IU) per 25 mg with hydroxyapatite as a carrier having a mean particle size ranging from 40 to 45 μm.
as §1

[4] = Salmon calcitonin blood concentration, nasal powder with aluminum hydroxide (Test Example 6); assay type: in vivo, healthy male adults (human); details: for Concentration of salmon calcitonin in the blood: nasal 200 MRC (IU)/25 mg, individual cases No. 14-16 in order
Protocol: A nasally administrable composition in powdery form was prepared by formulating salmon calcitonin as a physiologically active peptide at the rate of 200 MRC (IU) per 25 mg with aluminum hydroxide as a carrier having a mean particle size ranging from 40 to 45 μm.
as §1

[5] = Salmon calcitonin blood concentration, nasal powder with magnesium stearate (Test Example 4); assay type: in vivo, healthy male adults (human)
Protocol: A nasally administrable composition in powdery form was prepared by formulating salmon calcitonin as a physiologically active peptide at the rate of 200 MRC (IU) per 25 mg with magnesium stearate as a carrier having a mean particle size ranging from 40 to 45 μm.
The resulting composition was nasally administered once at a dose of 25 mg to three healthy male adults and the blood (2.5 ml) was collected from each of the tested adults prior to administration and then at 5, 10, 15, 20, 30, 45, 60, 90, 120 and 180 minutes after administration. The concentration of the salmon calcitonin in each -of the collected blood samples was assayed with a standard RIA assay kit.

[6] = Nasal absorption, clinical effect and irritation (general statement); assay type: in vivo
[7] = Salmon calcitonin blood concentration, nasal powder with hydroxyapatite (Test Example 3); assay type: in vivo, healthy male adults (human); details: for Concentration of salmon calcitonin in the blood: nasal 200 MRC (IU)/25 mg, individual cases No. 4-7 in order
Protocol: as §2
The resulting composition was nasally administered once at a dose of 25 mg to four healthy male adults and the blood (2.5 ml) was collected from each of the tested adults prior to administration and then at 5, 10, 15, 20, 30, 45, 60, 90, 120 and 180 minutes after administration. The concentration of the salmon calcitonin in each of the collected blood samples was assayed with a standard RIA assay kit.

[8] = powder in specific carrier, nasal route

## salmon calcitonin
[1]
  absorption: high extent of absorption
[2]
  stability: relatively low in stability
[3]; 0 min (predose)
  Concentration of salmon calcitonin in the blood: ~ 7 pg/ml
[3]; 5 min
  Concentration of salmon calcitonin in the blood: 55.50 pg/mL and 14.05 pg/mL and 76.25 pg/mL
[3]; 10 min
  Concentration of salmon calcitonin in the blood: 93.05 pg/mL and 44.12 pg/mL and 107.67 pg/mL
[3]; 15 min
  Concentration of salmon calcitonin in the blood: 49.84 pg/mL and 77.03 pg/mL and 118.26 pg/mL
[3]; 20 min
  Concentration of salmon calcitonin in the blood: 65.95 pg/mL and 59.36 pg/mL and 95.07 pg/mL
[3]; 30 min
  Concentration of salmon calcitonin in the blood: 21.08 pg/mL and 47.69 pg/mL and 102.78 pg/mL
[3]; 45 min
  Concentration of salmon calcitonin in the blood: 12.54 pg/mL and 24.68 pg/mL and 60.68 pg/mL
[3]; 60 min
  Concentration of salmon calcitonin in the blood: 13.50 pg/mL and 19.43 pg/mL and 42.97 pg/mL
[3]; 90 min
  Concentration of salmon calcitonin in the blood: 7.92 pg/ml and ~ 7 pg/ml and 21.78 pg/ml
[3]; 120 min
  Concentration of salmon calcitonin in the blood: ~ 7 pg/ml and 12.75 pg/ml
[3]; 180 min
  Concentration of salmon calcitonin in the blood: ~ 7 pg/ml
[3]; nasal
  absorption into the blood: high degree of absorption
[4]; 0 min (predose)
  Concentration of salmon calcitonin in the blood: ~ 7 pg/ml
[4]; 5 min
  Concentration of salmon calcitonin in the blood: 19.75 pg/mL and 26.41 pg/mL and 32.23 pg/mL
[4]; 10 min
  Concentration of salmon calcitonin in the blood: 19.35 pg/mL and 34.82 pg/mL and 24.85 pg/mL
[4]; 15 min
  Concentration of salmon calcitonin in the blood: 14.97 pg/mL and 31.66 pg/mL and 18.68 pg/mL
[4]; 20 min
  Concentration of salmon calcitonin in the blood: ~ 7 pg/ml and 37.63 pg/ml and 12.92 pg/ml
[4]; 30 min
  Concentration of salmon calcitonin in the blood: 9.15 pg/ml and 24.79 pg/ml and ~ 7 pg/ml
[4]; 45 min
  Concentration of salmon calcitonin in the blood: ~ 8 pg/ml and 13.70 pg/ml and ~ 7 pg/ml
[4]; 60 min
  Concentration of salmon calcitonin in the blood: ~ 7 pg/ml and 12.12 pg/ml
[4]; nasal
  absorption: high extent of absorption
  concentration in the blood versus injection: simlar to that obtainable by injection
[5]
  absorption: high extent of absorption
[6]; homogeneously dispersed in and adsorbed onto the carrier
  bioavailability and concentration in blood: high both in bioavailability and concentration in blood
[6]; [8]
  absorption into the body: well absorbed into the body
  clinical effects: high clinical effects
[7]
  absorption through the nasal cavity: high extent of absorption
[7]; 0 min (predose)
  Concentration of salmon calcitonin in the blood: ~ 7 pg/ml
[7]; 5 min
  Concentration of salmon calcitonin in the blood: 65.30 pg/mL and 66.02 pg/mL and 57.83 pg/mL and 72.72 pg/mL
[7]; 10 min
  Concentration of salmon calcitonin in the blood: 98.88 pg/mL and 95.22 pg/mL and 83.75 pg/mL and 130.21 pg/mL
[7]; 15 min
  Concentration of salmon calcitonin in the blood: 96.96 pg/mL and 106.69 pg/mL and 91.55 pg/mL and 139.54 pg/mL
[7]; 20 min
  Concentration of salmon calcitonin in the blood: 59.91 pg/mL and 102.60 pg/mL and 63.17 pg/mL and 122.29 pg/mL
[7]; 30 min
  Concentration of salmon calcitonin in the blood: 46.96 pg/mL and 71.13 pg/mL and 48.09 pg/mL and 91.38 pg/mL
[7]; 45 min
  Concentration of salmon calcitonin in the blood: 23.89 pg/mL and 57.42 pg/mL and 30.95 pg/mL and 45.91 pg/mL
[7]; 60 min
  Concentration of salmon calcitonin in the blood: 14.31 pg/mL and 33.21 pg/mL and 19.56 pg/mL and 15.62 pg/mL
[7]; 90 min
  Concentration of salmon calcitonin in the blood: ~ 7 pg/ml (2×) and 13.06 pg/ml and 10.39 pg/ml
[7]; 120 min
  Concentration of salmon calcitonin in the blood: ~ 7 pg/ml and 8.76 pg/ml
[7]; 180 min
  Concentration of salmon calcitonin in the blood: ~ 7 pg/ml
[7]; nasal
  time of maximum concentration: reaching maximum in a short time after administration
